Assay results taken from patent US5013841A, “Oxo quinoline derivatives” (Dainippon Pharmaceutical Co., Ltd., priority 1987, dated 1991).
Values after ≈ are worked out from the molar mass of the structure shown. Like-named read-outs stand apart in the source and are kept apart here.

Key:
S. pyogenes Cook = assay: In vitro antibacterial activity (twofold agar-dilution method); format: cell-based; conditions: Streptococcus pyogenes, 20 h, 37° C., calculated for free base, read-out: minimum inhibitory concentration (MIC)
Experimental: (§1) The figures in the table show minimum inhibitory concentrations (MIC) (μg/ml), calculated for free base. The minimum inhibitory concentration was determined by the twofold agar-dilution method, which was recommended by Japan Society of Chemotherapy (Chemotherapy, 29(1), 76(1981)), using Muller-Hinton agar. One loopful of an overnight culture of test organisms in Mueller-Hinton broth was inoculated onto 10-ml drug-containing agar layers in petri dishes. Bacterial inocula contained approximately 10^6 colonyl-formingunits. Bacterial growth was observed after 20-hour incubation at 37° C. The MIC was defined as the lowest drug concentration which prevented visible bacterial growth.

E. coli NIHJ JC-2 = assay: as above; format: cell-based; conditions: Escherichia coli, NIHJJC2; E. coli NIHJ JC-2; agar dilution, 20 h, 37° C., calculated for free base; read-out: minimum inhibitory concentration (MIC)
Experimental: as §1

S. aureus Terajima = assay: as above; format: cell-based; conditions: Staphylococcus aureus, 20 h, read-out: minimum inhibitory concentration (MIC)
Experimental: as §1

S. epidermidis No. 8 = assay: as above; format: cell-based; conditions: Staphylococcus epidermidis, read-out: minimum inhibitory concentration (MIC)
Experimental: as §1

Flavobacterium sp P-7201 = assay: as above; format: cell-based; conditions: read-out: minimum inhibitory concentration (MIC)
Experimental: as §1

E. coli P-5101 = assay: as above; format: cell-based; conditions: Escherichia coli, P5101; E. coli P-5101; agar dilution, 20 h, 37° C., calculated for free base; read-out: minimum inhibitory concentration (MIC)
Experimental: as §1

S. aureus No. 80 = assay: as above; format: cell-based; conditions: Staphylococcus aureus; S. aureus No. 80; agar dilution, 20 h, 37° C., calculated for free base; read-out: minimum inhibitory concentration (MIC)
Experimental: as §1

[1] = test system: Streptococcus pneumoniae 1 Neufeld; format: in vivo, Streptococcus pneumoniae (male mice, Std-ddY); conditions: 336 h, mice, oral, four times (immediately, 6, 24 and 30 h after intraperitoneal infection), 14 days, calculated for free base, read-out: median effective dose (ED50)
[2] = test system: Staphylococcus aureus 50774; format: in vivo, Staphylococcus aureus (male mice, Std-ddY); conditions: Staphylococcus aureus, 50774, 336 h; mice, oral, twice (immediately and 6 h after intravenous infection), 14 days, calculated for free base; read-out: median effective dose (ED50)
Excerpt: Staphylococcus aureus 50774
Intravenous infection with 5×10^8 cells per mouse suspended in saline.
For 7 days for other organisms.

[3] = test system: Streptococcus pyogenes A65; conditions: A65, in Mus musculus, po, 168 h, read-out: median effective dose (ED50)
[4] = Urinary excretion in mice (thin-layer cup-plated method, Escherichia coli Kp indicator); format: in vivo; conditions: mouse, urine, oral, 5 mg/kg, read-out: Urinary recovery for 24 hours
Experimental: A suspension containing each of compounds was orally administered to mice at a dose of 5 mg/kg. Urine was collected over a period of 24 hours after adminstration. The levels of the compounds in urine were determined by the thin-layer cup-plated method using Escherichia coli Kp as an indicator organism.

[5] = test system: Pseudomonas aeruginosa 12; conditions: Pseudomonas aeruginosa, 12, in Mus musculus, po, 168 h, read-out: median effective dose (ED50)

Nc1c(F)c(N2CCNCC2)cc2c1c(=O)c(C(=O)O)cn2C1CC1 [Compound 1]
MIC (S. pyogenes Cook): 0.2 µg/mL (≈ 0.577 µM)
MIC (E. coli NIHJ JC-2): 0.0063 µg/mL (≈ 0.0182 µM)
MIC (S. aureus Terajima; S. aureus Terajima, agar dilution, 37° C., calculated for free base): 0.05 µg/mL (≈ 0.144 µM)
MIC (S. epidermidis No. 8; S. epidermidis No. 8, agar dilution, 20 h, 37° C., calculated for free base): 0.025 µg/mL (≈ 0.0722 µM)
MIC (Flavobacterium sp P-7201; P7201, Flavobacterium sp P-7201, agar dilution, 20 h, 37° C., calculated for free base): 0.1 µg/mL (≈ 0.289 µM)
MIC (E. coli P-5101): 0.0063 µg/mL (≈ 0.0182 µM)
MIC (S. aureus No. 80): 0.05 µg/mL (≈ 0.144 µM)

C[C@@H]1CN(c2cc3c(c(N)c2F)c(=O)c(C(=O)O)cn3C2CC2)C[C@H](C)N1 [Compound 2, 5-amino-1-cyclopropyl-6-fluoro-7-(cis-3,5-dimethyl-1-piperazinyl)-1,4-dihydro-4-oxoquinoline-3-carboxylic acid]
ED50 [1]: 10.2 mg/kg
ED50 [2]: 1.41 mg/kg
ED50 [3]: 11.6 mg/kg
dose excreted at 24 h [4]: 8.33%
MIC (S. pyogenes Cook): 0.39 µg/mL (≈ 1.04 µM)
MIC (E. coli NIHJ JC-2): 0.025 µg/mL (≈ 0.0668 µM)
MIC (S. aureus Terajima): 0.05 µg/mL (≈ 0.134 µM)
MIC (S. epidermidis No. 8; NO.8, 20 h): 0.1 µg/mL (≈ 0.267 µM)
MIC (Flavobacterium sp P-7201; Flavobacterium, P7201, 20 h): 0.1 µg/mL (≈ 0.267 µM)
MIC (E. coli P-5101): 0.025 µg/mL (≈ 0.0668 µM)
MIC (S. aureus No. 80): 0.025 µg/mL (≈ 0.0668 µM)
ED50 [5]: 1.98 mg/kg
